Reference: patent US8076329B2, “Histamine H3-receptor ligands and their therapeutic applications” (Bioprojet, priority 2005, dated 2011)
Values joined by “and” are separate entries in the source; they are usually repeats but may differ in a detail not shown here. Equal values may be shown once. Read-outs that look alike come from different tables or passages of the source.

Tests used:
[1] = target: CYP2D6 (Homo sapiens, UniProt P10635); assay: Cytochrome inhibition, fluorometric microtiter plate assay; assay type: in vitro ADME; conditions: human recombinant CYP2D6, substrate AMMC, compounds of the invention
CYP2D6, sequence (P10635 whole entry, canonical isoform): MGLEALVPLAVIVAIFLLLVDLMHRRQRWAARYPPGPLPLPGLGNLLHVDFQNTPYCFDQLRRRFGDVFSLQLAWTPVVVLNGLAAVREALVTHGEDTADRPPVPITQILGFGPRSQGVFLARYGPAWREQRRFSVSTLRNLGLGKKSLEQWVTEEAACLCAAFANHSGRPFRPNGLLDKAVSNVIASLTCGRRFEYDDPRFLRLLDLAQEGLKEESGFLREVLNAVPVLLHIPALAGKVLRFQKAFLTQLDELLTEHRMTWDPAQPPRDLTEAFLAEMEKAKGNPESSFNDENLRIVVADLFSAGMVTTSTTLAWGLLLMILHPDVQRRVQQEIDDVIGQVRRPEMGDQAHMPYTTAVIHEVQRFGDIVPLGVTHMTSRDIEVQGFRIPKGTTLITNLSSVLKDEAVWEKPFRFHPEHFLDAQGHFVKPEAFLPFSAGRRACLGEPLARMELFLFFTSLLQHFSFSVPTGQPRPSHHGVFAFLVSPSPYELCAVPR
Description: (§1) The ability of drug in human to inhibit the catalytic activity of cytochrome P-450 isoforms was assayed using microtiter plate-based, fluorometric assays for the activities of the five human major CYP forms. Inhibition potential was determined in vitro after incubation of fluorescent model substrates over various incubation time with human recombinant cytochrome isoforms in the absence or in presence of increasing concentrations of test molecules (from 1 nM to 100 μM), in comparison with specific CYP isoform inhibitors.
(§2) Incubation of drug was carried out at 37° C.±0.5° C. under agitation in the presence of human recombinant cytochrome P-450 isoforms and a NADPH generating system. The incubation conditions for each cytochrome isoform were as follows: […]

[2] = target: CYP3A4 (Homo sapiens, UniProt P08684); assay: as above; assay type: in vitro ADME; conditions: human recombinant CYP3A4, substrate BFC, compounds of the invention
CYP3A4, sequence (P08684 whole entry): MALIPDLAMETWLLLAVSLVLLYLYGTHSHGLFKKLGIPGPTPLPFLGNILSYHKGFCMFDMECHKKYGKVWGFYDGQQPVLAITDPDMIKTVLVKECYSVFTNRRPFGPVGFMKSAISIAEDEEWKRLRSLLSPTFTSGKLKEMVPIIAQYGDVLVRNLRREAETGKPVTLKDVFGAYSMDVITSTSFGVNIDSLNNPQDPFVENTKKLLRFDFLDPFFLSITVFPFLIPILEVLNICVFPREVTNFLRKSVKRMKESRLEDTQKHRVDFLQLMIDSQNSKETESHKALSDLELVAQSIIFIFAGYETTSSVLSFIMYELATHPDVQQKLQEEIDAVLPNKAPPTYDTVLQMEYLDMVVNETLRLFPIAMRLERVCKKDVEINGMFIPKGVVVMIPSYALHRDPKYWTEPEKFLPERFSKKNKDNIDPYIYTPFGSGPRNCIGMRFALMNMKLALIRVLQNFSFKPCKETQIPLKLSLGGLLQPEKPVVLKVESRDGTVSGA
Description: as §1, §2

[3] = read-out: CYP2D6 cytochrome inhibition (IC50, concentrations in μM for 50% inhibition)
[4] = read-out: CYP3A4 cytochrome inhibition (IC50, concentrations in μM for 50% inhibition)
[5] = CYP2D6 cytochrome inhibition (IC50, concentrations in μM for 50% inhibition)
[6] = CYP3A4 cytochrome inhibition (IC50, concentrations in μM for 50% inhibition)

Row | Molecule | IC50 [1, 5] [µM] | IC50 [2, 6] | IC50 ([2]; human, recombinant human CYP3A4, probe BFC, CYP3A4 cytochrome inhibition (IC50, concentrations in μM for 50% inhibition)) [µM] | IC50 [1, 3] [µM] | IC50 [2, 4]
1 | 1-{3-[4-(cis-4-dimethylaminocyclohex-1-yl)phenoxy]propyl}piperidine, dioxalate and 1-{3-[4-(trans-4-dimethylaminocyclohex-1-yl)phenoxy]propyl}-piperidine, dioxalate [Example 18] |  |  |  | > 10 | 43 µM and 50 µM
2 | 1-{3-[4-(cis-4-morpholinocyclohex-1-yl)phenoxy]propyl}piperidine, dihydrochloride and 1-{3-[4-(trans-4-morpholinocyclohex-1-yl)phenoxy]-propyl}piperidine, dihydro-chloride [Example 40] |  |  |  | > 100 | 66 µM
3 | CC1CCCN(CCCOc2ccc(C(C)(C)O)cc2)C1 (racemic) [Example 6, (RS)-1-{3-[4-(1-hydroxy-1-methylethyl)phenoxy]propyl}-3-methylpiperidine] | > 10 | > 10 µM |  |  | 
4 | C[C@@H]1C[C@@H](C)CN(CCCOc2ccc([C@H]3CC[C@@H](N(C)C)CC3)cc2)C1 (relative stereo) [Example 20, trans-1-{3-[4-(cis-4-dimethylaminocyclohex-1-yl)phenoxy]propyl}-3,5-dimethylpiperidine, dioxalate and trans-1-{3-[4-(trans-4-dimethylaminocyclohex-1-yl)-phenoxy]propyl}-3,5-dimethylpiperidine, dioxalate] | > 10 | 38 µM and 35 µM |  |  | 
5 | N#CCc1ccc(OCCCN2CCCCC2)cc1 [Example 4] | > 10 | > 10 µM |  |  | 
6 | C=CCC(O)(CC=C)c1ccc(OCCCN2CCCCC2)cc1 [Example 9, 1-{3-[4-(1-hydroxy-1-allylbut-3-enyl)phenoxy]propyl}piperidine] | 8 | 3 µM |  |  | 
7 | C(=C\c1ccc(OCCCN2CCCCC2)cc1)/c1ccccc1 [Example 11, trans-1-{3-(4-styrylphenoxy)propyl]piperidine] | 5 | 20 µM |  |  | 
8 | c1ccc(COc2ccc(OCCCN3CCCCC3)cc2)cc1 [Example 13, 1-{3-[4-(benzyloxy)phenoxy]propyl}piperidine] | 23 | 16 µM |  |  | 
9 | c1cc([C@H]2CC[C@H](N3CCCC3)CC2)ccc1OCCCN1CCCCC1 [Example 19, 1-{3-[4-(cis-4-tetramethylenaminocyclohex-1-yl)phenoxy]propyl}piperidine, dioxalate and 1-{3-[4-(trans-4-tetramethylenaminocyclohex-1-yl)phenoxy]propyl}-piperidine, dioxalate] | > 10 | 42 µM and 48 µM |  |  | 
10 | COc1ccc(-c2ccc(OCCCN3CCCCC3)cc2)cc1 [Example 25, 1-{3-[(4′-methoxybiphenyl-4-yl)oxy]propyl}piperidine] | > 10 | > 10 µM |  |  | 
11 | c1cc(-c2ccc(OCCCN3CCCCC3)cc2)ccn1 [Example 30] | 7 | 11 µM |  |  | 
12 | c1cc(-c2ccc(OCCCN3CCOCC3)cc2)ccc1OCCCN1CCCCC1 [Example 36, 4-(3-{[4′-(3-piperidinopropoxy)biphenyl-4-yl]oxy}propyl)morpholine] | > 10 | 3 µM |  |  | 
13 | c1cc(-c2ccc(OCCCN3CCCC3)cc2)ccc1OCCCN1CCCC1 [Example 38, di-1,1′-{(biphenyl-4,4′-diyl)bis[oxy(propan-1,3-diyl)]}pyrrolidine] | > 10 | 30 µM |  |  | 
14 | C(=C\c1ccc(-c2ccc(OCCCN3CCCCC3)cc2)cc1)/CN1CCCCC1 [Example 44, (E)-1-(3-{[4′-(3-piperidinoprop-1-en-1-yl)biphenyl-4-yl]oxy}propyl)piperidine] | > 10 | > 1 µM |  |  | 
15 | C(=C/c1ccc(-c2ccc(OCCCN3CCCCC3)cc2)cc1)/CN1CCCCC1 [Example 45, (Z)-1-(3-{[4′-(3-piperidinoprop-1-en-1-yl)biphenyl-4-yl]oxy}propyl)piperidine] | 79 | 5 µM |  |  | 
16 | CN1CCN(c2ccc(-c3ccc(OCCCN4CCCCC4)cc3)cc2)CC1 [Example 46, 1-methyl-4-[4′-(3-piperidinopropoxy)biphenyl]piperazine] | > 100 | 12 µM |  |  | 
17 | CN(C)[C@H]1CC[C@@H](Cc2ccc(OCCCN3CCCCC3)cc2)CC1 [Example 47, 1-{3-[4-(cis-4-dimethylaminocyclohex-1-yl)methylphenoxy]propyl}piperidine] | 107 | 37 µM |  |  | 
18 | c1cc(-c2ccc(OCCCN3CCCCC3)cc2)ccc1CCCN1CCCCC1 [Example 48] | 2 | 2 µM |  |  | 
19 | [O-][n+]1ccc(-c2ccc(OCCCN3CCCCC3)cc2)cc1 [Example 53, 4-[4-(3-piperidinopropoxy)phenyl]pyridine 1-oxide] | 64 | 57 µM |  |  | 

Now from value to molecule, other results behind:

Row | IC50 [1, 5] [µM] | IC50 [2, 6] | IC50 ([2]; human, recombinant human CYP3A4, probe BFC, CYP3A4 cytochrome inhibition (IC50, concentrations in μM for 50% inhibition)) [µM] | Molecule | IC50 [1, 3] [µM] | IC50 [2, 4]
20 | 14 | 8 µM |  | CC1CCCN(CCCOc2ccc(-c3ccccc3)cc2)C1 (racemic) [Example 26, (RS)-1-{3-[(biphenyl-4-yl)oxy]propyl}-3-methylpiperidine] |  | 
21 | > 10 | > 10 µM |  | C[C@H]1C[C@H](C)CN(CCCOc2ccc(C(=O)N3CCCC3)cc2)C1 (relative stereo) [Example 2, trans-1-{3-[4-(N,N-tetramethylenecarbamoyl)phenoxy]propyl}-3,5-dimethylpiperidine] |  | 
22 | > 10 | 67 µM |  | C[C@@H]1C[C@@H](C)CN(CCCOc2ccc(C(C)(C)O)cc2)C1 (relative stereo) [Example 5, trans-1-{3-[4-(1-hydroxy-1-methylethyl)phenoxy]propyl}-3,5-dimethylpiperidine] |  | 
23 | 47 | 30 µM |  | C=C(C)c1ccc(OCCCN2C[C@@H](C)C[C@H](C)C2)cc1 (relative stereo) [Example 10, trans-1-{3-(4-isopropenylphenoxy)propyl]-3,5-dimethylpiperidine] |  | 
24 | > 10 | > 10 µM |  | C[C@@H]1C[C@@H](C)CN(CCCOc2ccc(Oc3ccccc3)cc2)C1 (relative stereo) [Example 14, trans-1-{3-[4-(phenoxy)phenoxy]propyl}-3,5-dimethylpiperidine] |  | 
25 | > 100 | 22 µM |  | C[C@@H]1C[C@@H](C)CN(CCCOc2ccc(C3=NCCCC3)cc2)C1 (relative stereo) [Example 16, trans-6-{4-[3-(3,5-dimethylpiperidino)propoxy]phenyl}-2,3,4,5-tetrahydropyridine] |  | 
26 | 13 | 3 µM |  | C[C@@H]1C[C@@H](C)CN(CCCOc2ccc(-c3ccccc3)cc2)C1 (relative stereo) [Example 22, trans-1-{3-[(biphenyl-4-yl)oxy]propyl}-3,5-dimethylpiperidine] |  | 
27 | > 10 | > 1 µM |  | Cc1ccc(-c2ccc(OCCCN3C[C@@H](C)C[C@H](C)C3)cc2)cc1 (relative stereo) [Example 27, trans-3,5-dimethyl-1-{3-[(4′-methylbiphenyl-4-yl)oxy]propyl}piperidine] |  | 
28 | 4 | 4 µM |  | C[C@@H]1C[C@@H](C)CN(CCCOc2ccc(-c3ccncc3)cc2)C1 (relative stereo) [Example 31, trans-3,5-dimethyl-1-{3-[4-(4-pyridyl)phenoxy]propyl}piperidine] |  | 
29 | 3 | 7 µM |  | C[C@H]1C[C@H](C)CN(CCCOc2ccc(-n3cccc3)cc2)C1 (relative stereo) [Example 33, trans-3,5-dimethyl-1-{3-[4-(pyrrol-1-yl)phenoxy]propyl}piperidine] |  | 
30 | 20 |  | 10 | C[C@@H]1C[C@@H](C)CN(CCCOc2ccc(-c3cc[nH]n3)cc2)C1 (relative stereo) [Example 34, trans-3,5-dimethyl-1-{3-[4-(pyrazol-3-yl)phenoxy]propyl}piperidine] |  | 
31 | > 10 | 28 µM |  | C[C@H]1C[C@H](C)CN(CCCOc2ccc([C@H]3CC[C@H](N(C)C)CC3)cc2)C1 [Example 12, (3S,5S)-1-{3-[4-(trans-4-dimethylaminocyclohex-1-yl)phenoxy]propyl}-3,5-dimethylpiperidine] |  | 
32 | > 10 | > 10 µM |  | c1ccc(-c2ccc(OCCCN3CCCC3)cc2)cc1 [Example 21, 1-{3-[(biphenyl-4-yl)oxy]propyl}pyrrolidine] |  | 
33 | 13 | 3 µM |  | C[C@H]1C[C@H](C)CN(CCCOc2ccc(-c3ccccc3)cc2)C1 [Example 23, (3S,5S)-1-{3-[(biphenyl-4-yl)oxy]propyl}-3,5-dimethylpiperidine] |  | 
34 | 6 | 11 µM |  | C[C@H]1CCCN(CCCOc2ccc(-c3ccncc3)cc2)C1 [Example 39, (3S)-3-methyl-1-{3-[4-(4-pyridyl)phenoxy]propyl}piperidine] |  | 
35 | > 10 | 27 µM |  | C[C@H]1C[C@H](C)CN(CCCOc2ccc([C@H]3CC[C@H](N)CC3)cc2)C1 [Example 49, (3S,5S)-1-{3-[4-(trans-4-aminocyclohex-1-yl)phenoxy]propyl}-3,5-dimethylpiperidine] |  | 
36 | > 100 | 72 µM |  | C[C@H]1CCCN(CCCOc2ccc(-c3cc[n+]([O-])cc3)cc2)C1 [Example 51, (3S)-4-{4-[3-(3-methylpiperidin-1-yl)propoxy]phenyl}pyridine 1-oxide] |  | 
